Patent US10550118B2, “JAK inhibitors containing a 4-membered heterocyclic amide” (THERAVANCE BIOPHARMA R&D IP, LLC, priority 2017, dated 2020)

System: IFNγ induced CXCL10 and CXCL9 secretion in EpiAirway tissue cultures
Experiment: Inhibition of IFNγ induced chemokines CXCL9 and CXCL10 in human 3D airway cultures
Assay type: cell-based
Settings: 192 h, day 8, ±STDV
Experimental: Assay 7: Inhibition of IFNγ and IL-27 Induced Chemokines CXCL9 and CXCL10 in Human 3D Airway Cultures
EpiAirway tissue cultures were obtained from Mattek (AIR-100). Cultures were derived from asthmatic donors. In a cell culture insert, human derived tracheal/bronchial epithelial cells were grown and differentiated on a porous membrane support, allowing an air-liquid interface with warmed culture medium below the cells and a gaseous test atmosphere above. Tissues were cultured in maintenance media (Mattek, AIR-100-MM) in a 37° C., 5% CO2 humidified incubator. Four donors were tested. On Day 0, tissue cultures were treated with test compounds at 10 μM, 1 μM and/or 0.1 μM. Compounds were diluted in dimethyl sulfoxide (DMSO, Sigma) to a final concentration of 0.1%. DMSO at 0.1% was used as a vehicle control. Test compounds were incubated with cultures for 1 hour at 37° C., 5% CO2, followed by the addition of pre-warmed media containing IFNγ (R&D Systems) or IL-27 (R&D Systems) at a final concentration at 100 ng/ml. Tissue cultures were maintained for 8 days. Media was replaced every 2 days with fresh media containing compounds and IFNγ or IL-27. […] Data is expressed as % Inhibition+/−standard deviation (±STDV). Percent inhibition was determined by compound inhibitory potency against IFNγ or IL-27 induced CXCL10 or CXCL9 secretion compared to vehicle treated cells. […]

CCc1cc(O)c(F)cc1-c1ccc2c(-c3nc4c([nH]3)CN(C(C)C)[C@H](C(=O)N3CC(N(C)C)C3)C4)n[nH]c2c1 [Example 2, (S)-(3-(dimethylamino)azetidin-1-yl)(2-(6-(2-ethyl-5-fluoro-4-hydroxyphenyl)-1H-indazol-3-yl)-5-isopropyl-4,5,6,7-tetrahydro-3H-imidazo[4,5-c]pyridin-6-yl)methanone]
inhibition at 1 µM: 65%
